c1ccc2c(c1)sc1ccccc12
Conditions | solubility (mole fraction)
in 2-(2-butoxyethoxy)ethanol, 282.75 K | 0.063
in 2-(2-butoxyethoxy)ethanol, 285.85 K | 0.0695
in 2-(2-butoxyethoxy)ethanol, 291.65 K | 0.0873
in 2-(2-butoxyethoxy)ethanol, 298.95 K | 0.105
in 2-(2-butoxyethoxy)ethanol, 304.35 K | 0.123
in 2-(2-butoxyethoxy)ethanol, 309.85 K | 0.144
in 2-(2-butoxyethoxy)ethanol, 316.05 K | 0.167
in 2-(2-butoxyethoxy)ethanol, 320.95 K | 0.192
in 2-(2-butoxyethoxy)ethanol, 324.35 K | 0.217
in 2-(2-butoxyethoxy)ethanol, 328.95 K | 0.245
in 2-(2-butoxyethoxy)ethanol, 333.15 K | 0.28
in DMF, 289.45 K | 0.113
in DMF, 294.25 K | 0.131
in DMF, 298.65 K | 0.147
in DMF, 302.65 K | 0.165
in DMF, 306.55 K | 0.184
in DMF, 310.15 K | 0.206
in DMF, 314.35 K | 0.231
in DMF, 318.35 K | 0.257
in DMF, 322.35 K | 0.285
in DMF, 325.55 K | 0.313
in DMF, 329.25 K | 0.344
in DMSO, 292.95 K | 0.0567
in DMSO, 296.45 K | 0.0668
in DMSO, 301.25 K | 0.0791
in DMSO, 306.15 K | 0.0925
in DMSO, 310.15 K | 0.108
in DMSO, 314.85 K | 0.127
in DMSO, 318.05 K | 0.15
in DMSO, 322.95 K | 0.177
in DMSO, 325.45 K | 0.201
in DMSO, 330.15 K | 0.234
in DMSO, 333.25 K | 0.264
in acetone, 300.15 K | 0.0769
in acetone, 301.15 K | 0.0792
in acetone, 303.15 K | 0.0884
in acetone, 308.15 K | 0.107
in acetone, 311.25 K | 0.12
in acetone, 314.65 K | 0.136
in acetone, 317.95 K | 0.156
in acetone, 321.65 K | 0.179
in acetone, 326.25 K | 0.217
in acetone, 330.95 K | 0.261
in acetone, 336.25 K | 0.319
in acetone, 341.15 K | 0.372
in acetonitrile, 289.35 K | 0.0103
in acetonitrile, 290.45 K | 0.0107
in acetonitrile, 293.25 K | 0.0121
in acetonitrile, 297.35 K | 0.0143
in acetonitrile, 302.15 K | 0.0175
in acetonitrile, 304.55 K | 0.0199
in acetonitrile, 309.25 K | 0.0244
in decalin, 294.15 K | 0.0408
in decalin, 296.15 K | 0.042
in decalin, 298.15 K | 0.0445
in decalin, 302.15 K | 0.049
in decalin, 304.15 K | 0.0516
in decalin, 308.15 K | 0.0571
in decalin, 317.15 K | 0.0706
in decalin, 325.15 K | 0.0891
in decalin, 331.15 K | 0.101
in decalin, 337.15 K | 0.107
in diethylene glycol, 287.85 K | 0.00027
in diethylene glycol, 299.95 K | 0.00062
in diethylene glycol, 309.95 K | 0.00093
in diethylene glycol, 314.15 K | 0.00119
in diethylene glycol, 317.65 K | 0.00163
in diethylene glycol, 320.95 K | 0.0023
in diethylene glycol, 324.95 K | 0.00328
in diethylene glycol, 326.85 K | 0.00443
in diethylene glycol, 328.15 K | 0.00619
in diethylene glycol, 330.15 K | 0.00951
in diethylene glycol, 332.35 K | 0.0143
in diethylene glycol, 334.15 K | 0.0203
in ethanol, 294.55 K | 0.0062
in ethanol, 300.25 K | 0.0074
in ethanol, 303.85 K | 0.0082
in ethanol, 306.45 K | 0.0092
in ethanol, 310.25 K | 0.0106
in ethanol, 313.95 K | 0.0121
in ethanol, 318.95 K | 0.0141
in ethanol, 322.55 K | 0.0164
in ethanol, 327.35 K | 0.0197
in ethanol, 331.15 K | 0.0239
in n-octane, 292.05 K | 0.0232
in n-octane, 294.15 K | 0.0244
in n-octane, 297.15 K | 0.0277
in n-octane, 300.05 K | 0.0317
in n-octane, 304.15 K | 0.0373
in n-octane, 308.25 K | 0.0438
in n-octane, 314.15 K | 0.0521
in n-octane, 318.15 K | 0.062
in n-octane, 325.15 K | 0.0767
in n-octane, 337.15 K | 0.0995
in n-propanol, 288.05 K | 0.0065
in n-propanol, 295.95 K | 0.0083
in n-propanol, 300.15 K | 0.0099
in n-propanol, 303.85 K | 0.0118
in n-propanol, 307.85 K | 0.0143
in n-propanol, 314.65 K | 0.0183
in n-propanol, 320.65 K | 0.0232
in n-propanol, 324.05 K | 0.0292
in n-propanol, 328.95 K | 0.0363
in n-propanol, 332.25 K | 0.043
in n-propanol, 336.05 K | 0.0486
in sulfolane, 297.65 K | 0.0541
in sulfolane, 299.45 K | 0.0563
in sulfolane, 301.75 K | 0.0609
in sulfolane, 303.45 K | 0.0712
in sulfolane, 309.15 K | 0.0923
in sulfolane, 313.35 K | 0.109
in sulfolane, 317.05 K | 0.125
in sulfolane, 321.05 K | 0.144
in sulfolane, 324.85 K | 0.163
in sulfolane, 327.75 K | 0.185
in sulfolane, 331.75 K | 0.214
in sulfolane, 334.75 K | 0.242
in sulfolane, 338.25 K | 0.271
in sulfolane, 340.45 K | 0.294
